Results on seven molecules are retold here after PubChem BioAssay (NCI).

Among the test systems are A498 renal; ACHN renal; CAKI-1 renal; CCRF-CEM leukemia; HCC-2998 colon; NCI-H226 lung; SF-539 CNS; SN12C renal; TK-10 renal; UO-31 renal.
Common to all, as to experiment: NCI tumour cell line growth inhibition, 48 h

Molecules are shown by their SMILES.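 Exposure lasted 48 hours, with cells grown in 96-well plates and compounds tested at five concentrations. Here, GI50 denotes the concentration required for 50% inhibition of growth. The concentration for full growth arrest is given as TGI.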

In the case of `COc1cc(-c2nc(SCCC(C)C)nc(Nc3ccc(S(N)(=O)=O)cc3)c2C#N)cc(OC)c1OC`, the GI50 with A498 renal was 1890 nM; in the test on ACHN renal, 2790 nM; in the test with CAKI-1 renal, 4000 nM; in the test with CCRF-CEM leukemia it was 2880 nM; in the test on HCC-2998 colon, 3220 nM; with NCI-H226 lung, 1670 nM. Further, the GI50 with SF-539 CNS was 2010 nM; in the test with SN12C renal, 1810 nM; with TK-10 renal it was 3500 nM; in the test with UO-31 renal it was 1820 nM. The TGI was 5360 nM with A498 renal; more than 100000 nM in the test on ACHN renal; more than 100000 nM in the test with CAKI-1 renal; more than 100000 nM in the test on CCRF-CEM leukemia; more than 100000 nM in the test on HCC-2998 colon; 4640 nM in the test on NCI-H226 lung. Moreover, the TGI was 5220 nM in the test on SF-539 CNS, 3510 nM in the test with SN12C renal, more than 100000 nM with TK-10 renal and more than 100000 nM in the test with UO-31 renal.
With `Cc1cc(N2CCOCC2)cc2[nH]c(-c3c(NC[C@@H](O)c4cccc(Cl)c4)cc[nH]c3=O)nc12`, the GI50 in the test with A498 renal was 350 nM; in the test on ACHN renal, 2840 nM; with CAKI-1 renal it was 1460 nM; with CCRF-CEM leukemia it was 4010 nM; in the test with HCC-2998 colon, 1570 nM; in the test on NCI-H226 lung it was 361 nM. Also, the GI50 in the test with SF-539 CNS is 2020 nM; in the test with SN12C renal, 798 nM; with TK-10 renal, 1550 nM; with UO-31 renal, 275 nM. Besides, the TGI in the test on A498 renal is 1150 nM; in the test with ACHN renal it was 80200 nM; in the test on CAKI-1 renal it was 5720 nM; in the test on CCRF-CEM leukemia it was more than 100000 nM; in the test on HCC-2998 colon it was 6150 nM; with NCI-H226 lung, 5890 nM. Also, the TGI is 4850 nM with SF-539 CNS, 12700 nM in the test on SN12C renal, 4400 nM in the test with TK-10 renal and 2980 nM in the test on UO-31 renal.
As for `Cc1ncc(C(=O)Nc2ccc(CN3CCN(C)CC3)c(C(F)(F)F)c2)cc1C#Cc1cnc(N)cc1C#N`, the GI50 in the test with A498 renal was 240 nM; in the test on ACHN renal it was 189 nM; with CAKI-1 renal, 154 nM; in the test on CCRF-CEM leukemia, 549 nM; in the test with HCC-2998 colon it was 1110 nM; with NCI-H226 lung, 263 nM. In addition, the GI50 in the test with SF-539 CNS is 542 nM; in the test on SN12C renal, 305 nM; in the test on TK-10 renal, 1700 nM; in the test with UO-31 renal it was 307 nM. The TGI in the test with A498 renal stood at 872 nM; in the test with ACHN renal, 2000 nM; in the test with CAKI-1 renal it was 1380 nM; with CCRF-CEM leukemia, 3200 nM; in the test on HCC-2998 colon, 3390 nM; in the test on NCI-H226 lung, 2660 nM. Besides, the TGI in the test with SF-539 CNS was 2930 nM; with SN12C renal, 2320 nM; with TK-10 renal, 3830 nM; in the test with UO-31 renal, 1330 nM.
In the case of `O=C(OC[C@H]1O[C@H](OC(=O)c2cc(O)c(O)c(OC(=O)c3cc(O)c(O)c(O)c3)c2)[C@H](OC(=O)c2cc(O)c(O)c(OC(=O)c3cc(O)c(O)c(O)c3)c2)[C@@H](OC(=O)c2cc(O)c(O)c(OC(=O)c3cc(O)c(O)c(O)c3)c2)[C@@H]1OC(=O)c1cc(O)c(O)c(OC(=O)c2cc(O)c(O)c(O)c2)c1)c1cc(O)c(O)c(OC(=O)c2cc(O)c(O)c(O)c2)c1`, the GI50 in the test on A498 renal was more than 25000 nM; in the test with ACHN renal it was 6420 nM; in the test on CAKI-1 renal, 1390 nM; in the test on CCRF-CEM leukemia it was 3230 nM; with HCC-2998 colon, 2520 nM; with NCI-H226 lung, 3230 nM. The GI50 in the test on SF-539 CNS is 5560 nM; with SN12C renal, 4200 nM; in the test with TK-10 renal, 7660 nM; in the test with UO-31 renal, 2610 nM. Further, the TGI with A498 renal was more than 25000 nM; with ACHN renal, more than 25000 nM; in the test with CAKI-1 renal, more than 25000 nM; with CCRF-CEM leukemia, more than 25000 nM; in the test with HCC-2998 colon, more than 25000 nM; in the test on NCI-H226 lung, 18000 nM. Also, the TGI in the test with SF-539 CNS, in the test on SN12C renal, with TK-10 renal and in the test on UO-31 renal was more than 25000 nM each time.
For `Cc1cnc(C(=O)Nc2nc3ccc(S(=O)(=O)Nc4ccc(C5(C(F)(F)F)CC5)cc4)cc3[nH]2)cn1`, the GI50 in the test with A498 renal is 228 nM; with ACHN renal, 552 nM; with CAKI-1 renal, 360 nM; in the test on CCRF-CEM leukemia it was 379 nM; in the test on HCC-2998 colon, 1130 nM; with NCI-H226 lung, 566 nM. In addition, the GI50 with SF-539 CNS was 314 nM; with SN12C renal, 519 nM; in the test with TK-10 renal it was 1480 nM; in the test with UO-31 renal it was 481 nM. The TGI in the test with A498 renal worked out at 882 nM; in the test with ACHN renal, 14000 nM; in the test on CAKI-1 renal, 15700 nM; in the test with CCRF-CEM leukemia, 22800 nM; with HCC-2998 colon it was 10400 nM; in the test with NCI-H226 lung, 6340 nM. For the same molecule, the TGI came to 3300 nM with SF-539 CNS, 5870 nM in the test with SN12C renal, 12000 nM in the test with TK-10 renal and 6200 nM in the test on UO-31 renal.
Regarding `CCCCCCCc1cc2c3c(nc4ccccc42)C(=O)c2cccnc2-c3n1`, the GI50 is 6460 nM in the test on A498 renal; 4080 nM in the test with ACHN renal; 4600 nM with CAKI-1 renal; 1620 nM with CCRF-CEM leukemia; 2930 nM in the test on HCC-2998 colon; 6820 nM in the test with NCI-H226 lung. Also, the GI50 in the test on SF-539 CNS was 18800 nM; in the test with SN12C renal it was 4810 nM; in the test on TK-10 renal, 2400 nM; in the test on UO-31 renal, 3850 nM. Further, the TGI with A498 renal is 17500 nM; in the test on ACHN renal it was 8190 nM; with CAKI-1 renal, 9510 nM; with CCRF-CEM leukemia it was 7660 nM; in the test on HCC-2998 colon it was 7560 nM; in the test on NCI-H226 lung, 16300 nM. Also, the TGI in the test on SF-539 CNS is 34800 nM; in the test with SN12C renal it was 10800 nM; with TK-10 renal it was 4410 nM; in the test with UO-31 renal, 11000 nM.
Consider `O=C1CCc2c(sc3[nH]c(=S)n(Cc4ccc(Cl)cc4)c(=O)c23)C1`, for which the GI50 was 1870 nM in the test with A498 renal; 465 nM with ACHN renal; 451 nM in the test on CAKI-1 renal; 479 nM with CCRF-CEM leukemia; 577 nM in the test on HCC-2998 colon; 1990 nM with NCI-H226 lung. For the same molecule, the GI50 in the test with SF-539 CNS is 356 nM; in the test on SN12C renal it was 384 nM; in the test with TK-10 renal, 988 nM; in the test on UO-31 renal it was 277 nM. For the same molecule, the TGI was 7250 nM with A498 renal; 3630 nM with ACHN renal; more than 100000 nM in the test on CCRF-CEM leukemia; 2300 nM in the test with HCC-2998 colon; 14500 nM with NCI-H226 lung; 1630 nM with SF-539 CNS. The results for the TGI with SN12C renal, with TK-10 renal and with UO-31 renal were more than 84700 nM, more than 100000 nM and 1210 nM, respectively.
